Assay results reported in patent US20090176742A1, “METHODS RELATING TO THE TREATMENT OF FIBROTIC DISORDERS” (UNIVERSITY OF WASHINGTON, priority 2005, published 2009).

Key:
[1] = system: TCF/β-catenin transcription; test: Bat-Gal transgenic mice given intratracheal bleomycin; lung sections stained with X-Gal (reporter for TCF/β-catenin transcription); type: in vivo; conditions: ICG-001 5 mg/Kg/day via minipump (subcutaneously)
Experimental: FIG. 14. FIG. 14A-C depicts lung sections taken from Bat-Gal transgenic mice given intratracheal saline or bleomycin and either treated with ICG-001 (5 mgs/Kg/day subcutaneously) or saline as vehicle control. The lungs were sectioned and stained with X-Gal (blue color.) FIG. 14A, intratracheal bleo+saline; FIG. 14B, intracheal bleo+ICG-001; FIG. 14C, saline+saline.
Using this murine model of pulmonary fibrosis in transgenic Bat-Gal mice, ICG-001 5 mg/Kg/day, administered via minipump) blocked >95% of bleomycin-induced TCF/β-catenin transcription.
These mice have a Beta-Galactosidase transgene driven by a TCF/Catenin driven promoter (i.e. a read out for activated Wnt/catenin signaling). The mice were given intratracheal saline or bleomycin and either treated with ICG-001 (5 mgs/Kg/day subcutaneously) or saline as vehicle control. The mice were sacrificed and the lungs sectioned and stained with X-Gal (blue color) A) intratracheal bleo+saline. B) intracheal bleo+ICG-001 C) saline+saline.
The dose was selected because ICG-001 reduces TCF/β-Catenin driven β-Galactosidase expression >95% at 5 mgs/Kg/day.

[2] = system: C57/B16 mice treated with intratracheal bleomycin; test: Murine model of bleomycin induced pulmonary fibrosis; lung sections stained with trichrome for collagen, plus body weight and survival; type: in vivo
Excerpt: FIG. 15. FIG. 15 depicts lung sections taken from C57/B16 mice treated with intratracheal bleomycin (lower left) or saline (upper left) for 5 days and stained with trichrome ([…]) to stain collagen.
Murine models of bleomycin induced fibrosis have been developed in order to study […] disease progression.
There is an absence of airway epithelium in lower left compared to upper left (see arrow heads) and extensive collagen deposition (lower left). […] Of interest is the upper right (saline treatment) showing lack of normal airway epithelialization, extensive collagen deposition and intra-airway hypercellularity (fibroblasts and inflammatory influx).
The procedures were performed using the animal model as described in Example 2 (FIG. 15), and the sectioned lungs were stained for collagen.

S100A4 = test: RT-PCR for S100A4 in bleomycin treated mice; type: in vivo; conditions: ICG-001 5 mgs/Kg/day s.c.
Excerpt: (§1) FIGS. 16 and 17 show RT-PCR data for S100A4 (FIG. 16) and collagen1A2 (FIG. 17), which are increased in the bleomycin treated mice (treated with saline control).

collagen1A2 = test: RT-PCR for collagen1A2 in bleomycin treated mice; type: in vivo; conditions: ICG-001 5 mgs/Kg/day s.c.
Excerpt: as §1

[3] = system: S100A4 (FSP-1, fibroblast specific protein-1); test: Western blot for S100A4 on whole cell lysates of cultured IPF fibroblasts; type: cell-based, human
Experimental: (§2) FIG. 20. FIG. 20 depicts a Western blots for S100A4 (also know as FSP-1 or fibroblast specific protein-1) and E-Cadherin performed on whole cell lysates of IPF patient fibroblasts cultured in RPMI1640+10% FBS for 2 days and treated with ICG-001.
(§3) Western blots for S100A4 (also know as FSP-1 or fibroblast specific protein-1) and E-Cadherin were performed on whole cell lysates (FIG. 20).

E-Cadherin = test: Western blot for E-Cadherin on whole cell lysates of cultured IPF patient fibroblasts; type: cell-based, human
Experimental: as §2, §3

Aquaporin 5 = Aquaporin 5 immunostaining of lung tissue in the bleomycin mouse model; type: in vivo, mice; conditions: bleomycin and ICG-001 versus bleomycin alone
Excerpt: FIG. 22. […] Bleomycin alone, FIG. 22A; bleomycin and ICG-001, FIG. 22B; saline FIG. 22C.
The aquaporins are water channels expressed in a variety of cell types. Aquaporin 5 is involved in the transportation of water across the apical surface of the alveolar epithelium and the epithelia of the submucosal glands in the upper airway and nasopharynx. (Krane, C. M., P.N.A.S. 98:14192-4, 2001; Yang, F. J. Biol. Chem. 278:32173-80, 2003). Because aquaporin 5 is a marker of Type 1 (differentiated) lung epithelium, its expression was assayed in lung tissue created with bleomycin (FIG. 22A), bleomycin and ICG-001 (FIG. 22B), and saline (FIG. 22C), using the animal model as described in Example 2 (FIG. 15), and immunostaining with an antibody specific for Aquaporin 5.

[4] = bleomycin and ICG-001 versus bleomycin
[5] = bleomycin for 5 days, then ICG-001 5 mgs/Kg/day for 10 days from the sixth day
[6] = IPF patient fibroblasts cultured for 2 days

## O=C1[C@H](Cc2ccc(O)cc2)N2C(=O)CCN(C(=O)NCc3ccccc3)[C@H]2CN1Cc1cccc2ccccc12 [ICG-001]
[1]
  bleomycin-induced TCF/β-catenin transcription (TCF/β-Catenin driven β-Galactosidase expression) blocked/reduced: > 95%
[2]; [4]
  alveolar fibrosis (lung sections stained for collagen): prevented
  interstitial fibrosis (lung sections stained for collagen): prevented
[2]; bleomycin for 5 days, then ICG-001 5 mgs/Kg/day for 10 days
  body weight: regained normal body weight
[2]; [5]
  airway appearance in trichrome-stained lung sections: the airway looks essentially normal
  collagen levels (trichrome stain): normal collagen levels
[2]; bleomycin for 5 days, then ICG-001 5 mgs/Kg/day for 10 days, untreated controls did not survive
  survival: survived
[2]; bleomycin mouse model, 25 days of treatment
  fibrosis over the 25 days of treatment: reversed fibrosis
[2]; bleomycin murine model, 5 mg/Kg/day
  disease progression, as judged by reduced mortality, histopathology and endogenous gene expression: not only halted but reversed disease progression
S100A4
  S100A4 message (RT-PCR): reduced essentially to negative control
collagen1A2
  collagen1A2 message (RT-PCR): reduced essentially to negative control
[3]; ATCC IPF cells cultured in RPMI1640+10% FBS for 2 days
  S100A4 expression (whole cell lysates): decreased
[3]; IPF patient fibroblasts
  S100A4 expression at the mRNA level: also true at the mRNA level
[3]; [6]
  S100A4 expression (Western blot, whole cell lysates): decreased
E-Cadherin; IPF patient fibroblasts
  E-cadherin expression at the mRNA level: also true at the mRNA level
E-Cadherin; [6]
  E-cadherin expression (Western blot, whole cell lysates): increased
Aquaporin 5
  aquaporin 5 expression (immunostaining, marker of Type 1 lung epithelium): greatly increased
